Reference: patent US20150105252A1, “SUBSTITUTED PYRAZOLES AS HERBICIDES” (E I DU PONT DE NEMOURS AND COMPANY, priority 2013, published 2015)

Experiments:
[1] = system: wheat; assay: Test A preemergence; assay type: in vivo, Triticum aestivum; details: preemergence, 125 g ai/ha, visual injury approx. 10 days after treatment
Summary of the method: (§1)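 Greenhouse test in loam soil/sand blend; compounds formulated in non-phytotoxic solvent with surfactant, applied as preemergence directed soil spray or postemergence to plants 2–10 cm tall at one- to two-leaf stage. Injury rated visually versus untreated controls after approximately 10 days on a 0 (no effect) to 100 (complete control) scale.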

[2] = system: barnyardgrass; assay: Test B flood; assay type: in vivo, Echinochloa crus-galli; details: 250 g ai/ha, visual rating on 0 to 100 scale (0 no effect, 100 complete control), 13 to 15 days
Summary of the method: (§2)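 Visual ratings on a 0–100 scale, where 0 means no effect and 100 means complete control, were assigned by comparison with controls 13 to 15 days after treatment. Compounds went into paddy water over 2-leaf plants flooded to 3 cm.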

[3] = system: crabgrass, large; assay: Test A preemergence; assay type: in vivo, Digitaria sanguinalis; details: preemergence; for Crabgrass, Large plant response rating (0 to 100 scale): 125 g ai/ha, visual injury approx. 10 days after treatment; for Crabgrass, Large plant response rating: 500 g ai/ha, visual injury after approx. 10 days, 0 to 100 scale (0 no effect, 100 complete control)
Summary of the method: as §1

[4] = system: barnyardgrass; assay: Test A preemergence; assay type: in vivo, Echinochloa crus-galli; details: preemergence; for Barnyardgrass plant response rating (0 to 100 scale, 0 is no effect, 100 is complete control): 125 g ai/ha, visual injury approx. 10 days after treatment; for Barnyardgrass plant response rating: 500 g ai/ha, visual injury after approx. 10 days, 0 to 100 scale (0 no effect, 100 complete control)
Summary of the method: as §1

[5] = system: rice; assay: Test B flood; assay type: in vivo, Oryza sativa; details: 250 g ai/ha, visual rating on 0 to 100 scale (0 no effect, 100 complete control), 13 to 15 days
Summary of the method: as §2

[6] = system: ducksalad; assay: Test B flood; assay type: in vivo, Heteranthera limosa; details: 250 g ai/ha, visual rating on 0 to 100 scale (0 no effect, 100 complete control), 13 to 15 days
Summary of the method: as §2

[7] = system: barnyardgrass; assay: Test A postemergence; assay type: in vivo, Echinochloa crus-galli; details: Postemergence
Summary of the method: as §1

[8] = system: velvetleaf; assay: Test A postemergence; assay type: in vivo, Abutilon theophrasti; details: Postemergence
Summary of the method: as §1

[9] = system: foxtail, giant; assay: Test A preemergence; assay type: in vivo, Setaria faberii; details: preemergence; for Foxtail, Giant plant response rating (0 to 100 scale): 125 g ai/ha, visual injury approx. 10 days after treatment; for Foxtail, Giant plant response rating: 500 g ai/ha, visual injury after approx. 10 days, 0 to 100 scale (0 no effect, 100 complete control)
Summary of the method: as §1

[10] = system: pigweed; assay: Test A postemergence; assay type: in vivo, Amaranthus retroflexus; details: Postemergence
Summary of the method: as §1

[11] = system: pigweed; assay: Test A preemergence; assay type: in vivo, Amaranthus retroflexus; details: preemergence, 125 g ai/ha, visual injury approx. 10 days after treatment
Summary of the method: as §1

[12] = system: foxtail, giant; assay: Test A postemergence; assay type: in vivo, Setaria faberii; details: Postemergence
Summary of the method: as §1

[13] = system: velvetleaf; assay: Test A preemergence; assay type: in vivo, Abutilon theophrasti; details: preemergence, 125 g ai/ha, visual injury approx. 10 days after treatment
Summary of the method: as §1

[14] = system: corn; assay: Test A preemergence; assay type: in vivo, Zea mays; details: preemergence; for Corn plant response rating (0 to 100 scale): 125 g ai/ha, visual injury approx. 10 days after treatment; for Corn plant response rating: 500 g ai/ha, visual injury after approx. 10 days, 0 to 100 scale (0 no effect, 100 complete control)
Summary of the method: as §1

[15] = system: crabgrass, large; assay: Test A postemergence; assay type: in vivo, Digitaria sanguinalis; details: Postemergence
Summary of the method: as §1

[16] = system: corn; assay: Test A postemergence; assay type: in vivo, Zea mays; details: Postemergence
Summary of the method: as §1

[17] = system: morningglory; assay: Test A postemergence; assay type: in vivo, Ipomoea spp.; details: Postemergence
Summary of the method: as §1

[18] = system: sedge, umbrella; assay: Test B flood; assay type: in vivo, Cyperus difformis; details: 250 g ai/ha, visual rating on 0 to 100 scale (0 no effect, 100 complete control), 13 to 15 days
Summary of the method: as §2

[19] = system: wheat; assay: Test A postemergence; assay type: in vivo, Triticum aestivum; details: Postemergence
Summary of the method: as §1

[20] = system: morningglory; assay: Test A preemergence; assay type: in vivo, Ipomoea spp.; details: preemergence, 125 g ai/ha, visual injury approx. 10 days after treatment
Summary of the method: as §1

[21] = 125 g ai/ha, 0 to 100 scale, 0 no effect, 100 complete control
[22] = 500 g ai/ha, 0 to 100 scale (0 no effect, 100 complete control)

Row | SMILES | Wheat plant response rating (0 to 100 scale) [1] | Plant response rating, Barnyardgrass [2] | Crabgrass, Large plant response rating (0 to 100 scale) [3] | Crabgrass, Large plant response rating [3] | Barnyardgrass plant response rating (0 to 100 scale, 0 is no effect, 100 is complete control) [4] | Barnyardgrass plant response rating [4] | Plant response rating, Rice [5] | Plant response rating, Ducksalad [6] | Barnyardgrass plant response rating [7, 21] | Barnyardgrass plant response rating [7, 22] | Velvetleaf plant response rating [8, 21] | Velvetleaf plant response rating [8, 22] | Foxtail, Giant plant response rating (0 to 100 scale) [9] | Foxtail, Giant plant response rating [9] | Pigweed plant response rating [10, 21] | Pigweed plant response rating [10, 22] | Pigweed plant response rating (0 to 100 scale) [11] | Foxtail, Giant plant response rating [12, 21] | Foxtail, Giant plant response rating [12, 22] | Velvetleaf plant response rating (0 to 100 scale) [13] | also measured
1 | CCc1cc(C(=O)NC2CC2)nn1Oc1cccc(OC(F)(F)F)c1 [Compound 222] | 0 | 0 | 80 | 100 | 0 | 90 | 15 | 55 | 80 | 80 | 30 | 50 | 0 | 80 | 30 | 100 | 20 | 20 | 70 | 0 | Corn plant response rating (0 to 100 scale) [14]: 0; Corn plant response rating [14]: 0; Crabgrass, Large plant response rating [15, 21]: 40; Crabgrass, Large plant response rating [15, 22]: 90; Corn plant response rating [16, 21]: 0; Corn plant response rating [16, 22]: 60; Morningglory plant response rating [17, 21]: 30; Morningglory plant response rating [17, 22]: 50; Plant response rating, Sedge, Umbrella [18]: 65; Wheat plant response rating [19, 21]: 0; Wheat plant response rating [19, 22]: 20; Morningglory plant response rating (0 to 100 scale) [20]: 0
2 | CCNC(=O)c1cc(CC)n(Oc2cccc(OC(F)(F)F)c2)n1 [Compound 223] | 0 | 0 | 20 | 90 | 0 | 40 | 25 | 25 | 0 | 50 | 0 | 30 | 0 | 20 | 20 | 60 | 0 | 0 | 30 | 0 | Corn plant response rating (0 to 100 scale) [14]: 0; Corn plant response rating [14]: 0; Crabgrass, Large plant response rating [15, 21]: 20; Crabgrass, Large plant response rating [15, 22]: 70; Corn plant response rating [16, 21]: 0; Corn plant response rating [16, 22]: 30; Morningglory plant response rating [17, 21]: 0; Morningglory plant response rating [17, 22]: 30; Plant response rating, Sedge, Umbrella [18]: 65; Wheat plant response rating [19, 21]: 0; Wheat plant response rating [19, 22]: 10; Morningglory plant response rating (0 to 100 scale) [20]: 0
3 | CCCNC(=O)c1cc(COC)n(Cc2cc(C(F)(F)C(F)(F)F)nn2C)n1 [Compound 228] | 0 | 0 | 90 | 100 | 10 | 90 | 0 | 30 | 0 | 50 | 10 | 30 | 30 | 80 | 30 | 80 | 90 | 10 | 60 | 0 | Corn plant response rating (0 to 100 scale) [14]: 0; Corn plant response rating [14]: 30; Crabgrass, Large plant response rating [15, 21]: 20; Crabgrass, Large plant response rating [15, 22]: 60; Corn plant response rating [16, 21]: 10; Corn plant response rating [16, 22]: 50; Morningglory plant response rating [17, 21]: 50; Morningglory plant response rating [17, 22]: 100; Plant response rating, Sedge, Umbrella [18]: 30; Wheat plant response rating [19, 21]: 0; Wheat plant response rating [19, 22]: 10; Morningglory plant response rating (0 to 100 scale) [20]: 30
